Test results from patent US20140309275A1, “Sphingosine Analogs, Compositions, and Methods Related Thereto” (Emory University, priority 2011, published 2014).
Like-named read-outs stand apart in the source and are kept apart here. Blank lines part the entries; values can stand above or below the compound they belong to.

Tests used:
Assay type in all cases: cell-based
[1] = tested on: LNCaP prostate cancer cells; experiment: WST-1 cytotoxicity assay, LNCaP; settings: Homo sapiens, 24 h treatment
Description: (§1) Prostate cancer cells were treated with enigmol or analogue for 24 h, and cytotoxicity was assessed by WST-1 assay. cLogPs were calculated with QuikProp on Maestro.

[2] = tested on: PC-3 prostate cancer cells; experiment: WST-1 cytotoxicity assay, PC-3; settings: 24 h treatment
Description: as §1

[3] = tested on: P. falciparum chloroquine resistant (CQ-R) W2 strain; experiment: [3H]-labeled hypoxanthine uptake assay, P. falciparum W2; settings: for IC50: Plasmodium falciparum; for IC50 W2: Table 1
Text: (§2) The [^3H]-labeled hypoxanthine uptake method was utilized to assay the effectiveness of our sphingoid base analogs in vitro for their ability to inhibit the growth and replication of malaria parasites in RBCs. […] The simian malaria parasite P. knowlesi has also been recognized as a human pathogen of public health concern in South East Asia, and it can be cultured effectively in vitro. This species was therefore included to probe the potential of multi-species efficacy within this compound class.
(§3) Cryopreserved iRBCs were provided by Dr. John W. Barnwell from the Centers for Disease Control and Prevention and maintained in in vitro culture as described in Trager & Jensen, Science 1976, 193 (4254), 673-5.
(§4) Compounds in Table 1 were dissolved in 70% 200-proof pharmaceutical grade ethanol, and a working solution of 0.2 mg/mL was prepared using hypoxanthine- and gentamicin-free incomplete RPMI 1640 (Gibco). Compounds in Table 2 were dissolved in 200 proof pharmaceutical grade ethanol at a concentration of 50 μM and then conjugated to BSA (Sigma) as described.^5 A working solution of 0.2 mg/mL was prepared using hypoxanthine- and gentamicin-free incomplete RPMI 1640 (Gibco). Two compounds were tested per plate in triplicate starting at 0.2 mg/mL and diluted two-fold down to 0.019 μg/mL using hypoxanthine- and gentamicin-free RPMI.
(§5) Parasite inoculum was prepared by mixing parasitized blood, uninfected 0+RBCs (for P. falciparum strains) or rhesus RBCs (for P. knowlesi) and culture medium (deficient in hypoxanthine and gentamicin) to a final concentration of 1% parasitemia and 1% haematocrit. A negative control was prepared by diluting uninfected erythrocytes to 1% haematocrit in culture medium. [^3H]-labeled hypoxanthine was added at 24 h (for P. falciparum strains) or 12 h (P. knowlesi) and the culture was collected 48 h or 12 h later for P. falciparum or P. knowlesi, respectively. [^3H] uptake was measured by using a scintillation spectrophotometer (Wallac Oy 1450 MicroBeta reader).
(§6) Triplicate wells were used to calculate the IC50 for each compound using the software XLFit v5.2 using the sigmoidal model 601. Average and standard deviations were calculated using Microsoft Excel.

[4] = tested on: P. falciparum chloroquine susceptible (CQ-S) D6 strain; experiment: [3H]-labeled hypoxanthine uptake assay, P. falciparum D6; settings: for IC50: Plasmodium falciparum; for IC50 D6: Table 1
Text: as §2, §3, §4, §5, §6

P. knowlesi H strain = experiment: [3H]-labeled hypoxanthine uptake assay, P. knowlesi; settings: Table 1, compounds dissolved in 70% ethanol, not BSA-conjugated; for IC50: Plasmodium knowlesi
Text: as §2, with “class. The data were generated with the known antimalarial drugs chloroquine and mefloquine as controls.” for “class.”
The H strain of P. knowlesi has been adapted to in vitro culture using Macaca mulatta (rhesus monkey) RBCs essentially as described in Kocken et al., Infect Immun 2002, 70 (2), 655-60 (the media was supplemented with 10% human AB serum).
Chloroquine (Sigma) and mefloquine (Sigma) were used as controls. Compounds in Table 1 were dissolved in 70% 200-proof pharmaceutical grade ethanol, and a working solution of 0.2 mg/mL was prepared using hypoxanthine- and gentamicin-free incomplete RPMI 1640 (Gibco). Compounds in Table 2 were dissolved in 200 proof pharmaceutical grade ethanol at a concentration of 50 μM and then conjugated to BSA (Sigma) as described.^5 A working solution of 0.2 mg/mL was prepared using hypoxanthine- and gentamicin-free incomplete RPMI 1640 (Gibco). Two compounds were tested per plate in triplicate starting at 0.2 mg/mL and diluted two-fold down to 0.019 μg/mL using hypoxanthine- and gentamicin-free RPMI.
as §5, §6

[5] = W2, Table 2, compounds conjugated to BSA, read-out: IC50 W2
[6] = D6, Table 2, compounds conjugated to BSA, read-out: IC50 D6
[7] = W2, Table 1, compounds dissolved in 70% ethanol, not BSA-conjugated, read-out: IC50 W2
[8] = compounds dissolved in 70% ethanol, not BSA-conjugated
[9] = D6, Table 1, compounds dissolved in 70% ethanol, not BSA-conjugated, read-out: IC50 D6

SMILES: CCCCCCCCCCCCC(F)(F)[C@@H](O)C[C@H](O)[C@H](C)N [ESPD-01407, (2S,3S,5S)-2-amino-6,6-difluorooctadecane-3,5-diol]
IC50 [1]: 10 µM | IC50 [2]: 9 µM

SMILES: CCCCCCCCCCCCC(F)(F)[C@H](O)C[C@H](O)[C@H](C)N [ESPD-01406, (2S,3S,5R)-2-amino-6,6-difluorooctadecane-3,5-diol]
IC50 [1]: 10 µM | IC50 [2]: 9 µM

SMILES: CCCCCC/C=C/CCCCC[C@H](O)C[C@H](O)[C@H](C)N [ESPD-01187]
IC50 [1]: 19 µM | IC50 [2]: 33 µM

SMILES: C[C@H](N)[C@@H](O)C[C@@H](O)CCCCCC#CCCCCCC(F)(F)F [ESPD-01184]
IC50 [1]: > 100 µM | IC50 [2]: 92 µM

SMILES: CCCCCCCCCCCCC(F)(F)[C@@H](O)C[C@@H](O)[C@H](C)N [ESPD-01409, (2S,3R,5S)-2-amino-6,6-difluorooctadecane-3,5-diol]
IC50 [1]: 10 µM | IC50 [2]: 10 µM

SMILES: CCCCCCCCCCCCC(F)(F)[C@H](O)C[C@@H](O)[C@H](C)N [ESPD-01408, (2S,3R,5R)-2-amino-6,6-difluorooctadecane-3,5-diol]
IC50 [1]: 10 µM | IC50 [2]: 9 µM

SMILES: CCCCCC/C=C\CCCCC[C@H](O)C[C@H](O)[C@H](C)N [ESPD-01192]
IC50 [1]: 19 µM | IC50 [2]: 25 µM

SMILES: C[C@H](N)[C@@H](O)C[C@@H](O)CCCCCCCCCCCCC(F)(F)F [ESPD-01183]
IC50 [1]: 13 µM | IC50 [2]: 13 µM

SMILES: CCCCCCC#CCCCCC[C@H](O)C[C@H](O)[C@H](C)N [ESPD-01185]
IC50 [1]: > 100 µM | IC50 [2]: > 100 µM

SMILES: CCN(CC)CCCC(C)Nc1ccnc2cc(Cl)ccc12 (centres unmarked) [Chloroquine, reference compound]
IC50 ([3]; W2, read-out: IC50 W2, Table 1, compounds dissolved in 70% ethanol, not BSA-conjugated): 0.18 µM | IC50 ([3]; W2, read-out: IC50 W2, Table 2, compounds conjugated to BSA): 0.093 µM | IC50 ([4]; D6, read-out: IC50 D6, Table 1, compounds dissolved in 70% ethanol, not BSA-conjugated): 0.02 µM | IC50 ([4]; D6, read-out: IC50 D6, Table 2, compounds conjugated to BSA): 0.011 µM

SMILES: C[C@H](N)[C@@H](O)C[C@@H](O)CCCCC/C=C/CCCCCC(F)(F)F [ESPD-01186]
IC50 [1]: 14 µM | IC50 [2]: 27 µM

The next lines start with results.

IC50 [3, 5]: 7.43 µM | IC50 [4, 6]: 4.1 ± 0.7 µM
SMILES: CCCCCCCCCCCCC[C@@H](O)C[C@H](O)C(C)(C)N (racemic) [ESPD-0561, (+/−)-anti-2 amino-2-methyloctadecane-3,5-diol]
IC50 [1]: 25 µM | IC50 [2]: 10 µM

IC50 [3, 7]: 13.1 ± 3.7 µM | IC50 W2 [3, 8]: no activity | IC50 [4, 9]: 11.1 ± 0.5 µM | IC50 D6 [4, 8]: no activity | IC50 (P. knowlesi H strain): > 58 µM | IC50 P. knowlesi (P. knowlesi H strain): no activity
SMILES: CCCCCCCCCCCCC[C@H](O)C[C@H](O)[C@H](C)NC(C)=O [ESPD-0506, N-((2S,3S,5S)-3,5-dihydroxyoctadecan-2-yl)acetamide]

IC50 [3, 7]: 8.09 ± 0.24 µM | IC50 [4, 9]: 14.6 ± 0.64 µM
SMILES: CCCCCCCCCCCCC[C@H](O)C[C@@H](O)[C@H](C)NC [ESPD-0559, (2S,3R,5S)-2-(methylamino)octadecane-3,5-diol]

IC50 [3, 5]: 4.67 ± 1 µM | IC50 [4, 6]: 5.2 ± 3 µM
SMILES: CCCCCCCCCCCCC[C@H](O)C[C@H](O)C(C)(C)N (racemic) [ESPD-0560, (+/−)-syn-2 amino-2-methyloctadecane-3,5-diol]
IC50 [1]: 23 µM | IC50 [2]: 10 µM

IC50 [3, 7]: 9.22 ± 1.6 µM | IC50 [4, 9]: 17.8 ± 1.1 µM | IC50 (P. knowlesi H strain): 20.3 ± 2 µM
SMILES: CCCCCCCCCCCCC[C@H](O)C[C@@H](O)[C@H](C)N [ESPD-0505, (2S,3R,5S)-2-Aminooctadecane-3,5-diol]

IC50 [3, 5]: 9.9 ± 7 µM | IC50 [4, 6]: 5.5 µM
SMILES: CCCCCCCCCCCCC[C@H](O)C[C@H](O)C1(N)CC1 (racemic) [ESPD-0860, (+/−)-syn1-(1-aminocyclopropyl)hexadecane-1,3-diol]

IC50 [3, 5]: 0.004 µM | IC50 (P. knowlesi H strain): 0.04 µM
SMILES: OC(c1cc(C(F)(F)F)nc2c(C(F)(F)F)cccc12)C1CCCCN1 (centres unmarked) [Mefloquine, reference compound]

IC50 [3, 7]: 8.17 ± 1.8 µM | IC50 [4, 9]: 12.7 ± 1.2 µM | IC50 (P. knowlesi H strain): 17.6 ± 1.8 µM
SMILES: CCCCCCCCCCCCC[C@@H](O)C[C@H](O)[C@H](C)N [ESPD-0503]

IC50 [3, 5]: 0.25 µM | IC50 ([3]; W2, text b107, BSA-conjugated, strain not stated (matches W2 of Table 2), read-out: IC50): 0.25 µM | IC50 [4, 6]: 0.7 ± 0.5 µM
SMILES: CCCCCCCCCCCCC[C@H](O)C[C@H](O)C(C)(C)NC (racemic) [ESPD-1158, (+/−)-syn-2-methyl-2-(methylamino)octadecane-3,5-diol]

IC50 [3, 7]: 4.39 ± 1.5 µM | IC50 [4, 9]: 9.7 ± 1 µM | IC50 (P. knowlesi H strain): 6.25 ± 0.27 µM
SMILES: CCCCCCCCCCCCC[C@H](O)C[C@H](O)[C@@H]1CCCN1 [ESPD-0522, (1S,3S)-1-((S)-pyrrolidin-2-yl)hexadecane-1,3-diol]

IC50 [3, 5]: 10 ± 2.7 µM | IC50 [4, 6]: 7.44 µM
SMILES: CCCCCCCCCCCCCC(O)C/C(=N\O)C(C)(C)N (centres unmarked) [ESPD-0858, (+/−,E)-2-amino-5-hydroxy-2-methyloctadecan-3-one oxime]
IC50 [1]: 24 µM | IC50 [2]: 24 µM

IC50 [3, 7]: > 37 µM | IC50 W2 [3, 8]: no activity | IC50 [4, 9]: > 37 µM | IC50 D6 [4, 8]: no activity | IC50 (P. knowlesi H strain): > 37 µM | IC50 P. knowlesi (P. knowlesi H strain): no activity
SMILES: CCCCCCCCCCCCCCCC(=O)N[C@@H](C)[C@@H](O)C[C@@H](O)CCCCCCCCCCCCC [ESPD-0514, N-((2S,3S,5S)-3,5-dihydroxyoctadecan-2-yl)palmitamide]

IC50 [3, 7]: 4.42 ± 1.1 µM | IC50 [4, 9]: 7 ± 0.6 µM | IC50 (P. knowlesi H strain): 6.83 ± 0.09 µM
SMILES: CCCCCCCCCCCCC[C@H](O)C[C@H](O)[C@H](C)N(C)C [ESPD-0513, (2S,3S,5S)-2-(dimethylamino)octadecane-3,5-diol]

IC50 [3, 5]: 7.2 ± 4 µM | IC50 [4, 6]: 11.2 µM
SMILES: CCCCCCCCCCCCC[C@@H](O)C[C@H](O)C1(N)CC1 (racemic) [ESPD-0859, (+/−)-anti-1-(1-aminocyclopropyl)hexadecane-1,3-diol]
